Data set [1] concerns the target T1, MAS (Homo sapiens, UniProt P04201).
T1 construct: expressed in transfected cells
T1 sequence (P04201 1-325): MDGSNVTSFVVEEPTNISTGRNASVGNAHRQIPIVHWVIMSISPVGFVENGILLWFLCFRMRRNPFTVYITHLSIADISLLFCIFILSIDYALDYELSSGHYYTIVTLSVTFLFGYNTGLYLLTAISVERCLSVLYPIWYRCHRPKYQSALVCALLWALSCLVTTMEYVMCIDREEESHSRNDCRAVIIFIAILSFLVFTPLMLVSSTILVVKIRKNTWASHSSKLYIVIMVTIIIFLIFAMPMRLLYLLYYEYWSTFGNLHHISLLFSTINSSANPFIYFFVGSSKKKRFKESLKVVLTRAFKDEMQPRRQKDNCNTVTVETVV
The data set is described as follows: FLIPR calcium assay, induced myc-tagged WT MAS HEK293 stable cell line. The data set is classed as cell-based.

In data set [2] the target is T1, MAS. Nature of the data set: HTRF IP1 assay, induced myc-tagged WT MAS HEK293 stable cell line. The data set is classed as cell-based. Background: Time-resolved FRET reads energy transfer from a long-lived donor to a nearby acceptor.
Protocol: IP1 levels in the cells were measured using the IP-One Tb kit (Cisbio US, Bedford, MA). For the assay, cells were seeded onto a 384-well low volume white cell culture plate at a density of 25,000 cells/well in 20 µl of induction or complete medium. In the IP1 assays the cell density of 25,000 cells/well was consistently maintained to minimize variability between independent experiments. The cells were maintained in a cell culture incubator for 26–28 h. The cells were then serum starved for 2 h by replacing the medium with 7 µl of serum free DMEM/F-12. During this step, 7 µl of serum free DMEM/F-12 was also added to the wells to which IP1 standards would be subsequently added. […] The cells were then placed in the cell culture incubator for 4 h. Later, 3 µl each of d2-labeled IP1 and anti-IP1 cryptate Tb conjugated antibody diluted in lysis buffer was added sequentially to all the wells and the plate was incubated overnight in the dark at room temperature. Time-resolved ratiometric fluorescence emission measurements at 665 nm and 620 nm were taken after excitation at 343 nm on FlexStation 3 instrument.
For the IP1 assay, a standard curve was generated using the 4-Parameter logistic equation fit of the HTRF readings of IP1 standards using the SoftMax Pro software. The IP1 concentrations in the experiments were extrapolated based on the standard curve parameters. […] For all the assays, the EC50 and IC50 values were estimated by fitting the data to a three parameter dose response using GraphPad Prism software (GraphPad, La Jolla, CA).
Data set [3] addresses T1, MAS. Nature of the data set: SRF-RE luciferase reporter assay (Gα12-dependent), induced WT MAS stable cell line. It counts as cell-based. As to conditions: induced cells.
Protocol: The luciferase assay was performed using pGL4 luciferase reporter vectors and Dual-Glo Luciferase Assay System (Promega, Madison, WI). For this assay, the inducible MAS stable cells were initially plated in a 10 cm plate and left overnight in a cell culture incubator. The following day the cells were transfected with 5 µg of pGL4.34 plasmid containing serum response factor response element (SRF-RE)-firefly luciferase reporter gene and 1 µg of pGL4.73 plasmid containing renilla luciferase (as a transfection efficiency control). […] After 8 h of transfection and induction, the cells were seeded onto a 96-well clear bottom black cell culture plate (pre-coated with poly-L-lysine) at a density of 125,000 cells/well in 100 µl of minimal medium (with reduced serum of 0.5%). The plate was maintained in a cell culture incubator for 18–20 h. At this point 50 µl of media in the cells was replaced with 50 µl of serum free media containing ligands at 2x the desired concentration and incubated for an additional 6 h. Finally, the luciferase activity in the cells was measured according the protocol provided by the manufacturer. The luminescence measurements (RLU) in the cells were obtained on FlexStation 3 instrument.
For re-stimulation assays, the data is expressed as the percentage of maximum agonist stimulation to allow for ready comparison between individual experiments. […] In the luciferase assay, the luminescence measurements (RLU) are presented as a ratio of firefly to renilla luciferase activity. For all the assays, the EC50 and IC50 values were estimated by fitting the data to a three parameter dose response using GraphPad Prism software (GraphPad, La Jolla, CA).
A further data set has as its target T2, MAS I191A mutant (Homo sapiens, UniProt P04201, I191A).
T2 construct: expressed in transfected cells
T2 sequence (P04201 1-325 I191A): T1 sequence (P04201 1-325) with I191A
Nature of the data set: IP1 assay, I191A MAS mutant stable cell line. It counts as cell-based. An excerpt: The WT MAS expression construct was synthesized with an N-terminal myc-tag (Figure 1) by GenScript (Piscataway, NJ). The myc-tagged WT MAS from this vector was initially sub-cloned into pcDNA3.1 and later sub-cloned into tetracycline/doxycycline inducible vector pcDNA 5/TO (Life Technologies, Grand Island, NY). Four different ligand binding MAS mutants (F112A, I191A, M244A and T270A) were created using site-directed mutagenesis of WT myc-tagged MAS in pcDNA3.1 or pcDNA 5/TO vector background (Agilent Technologies, Santa Clara, CA). WT MAS receptor without an epitope tag was constructed by replacing the 5′ portion of the myc-tagged WT MAS in pcDNA 5/TO by untagged MAS sequence from a plasmid construct provided as a gift from Arena Pharmaceuticals, Inc. (San Diego, CA). The sequences of all WT and mutant MAS genes in plasmid constructs were verified by capillary DNA sequencing at the Genomics Core at Lerner Research Institute (Cleveland, OH).
IP1 levels in the cells were measured using the IP-One Tb kit (Cisbio US, Bedford, MA). For the assay, cells were seeded onto a 384-well low volume white cell culture plate at a density of 25,000 cells/well in 20 µl of induction or complete medium. In the IP1 assays the cell density of 25,000 cells/well was consistently maintained to minimize variability between independent experiments. The cells were maintained in a cell culture incubator for 26–28 h. The cells were then serum starved for 2 h by replacing the medium with 7 µl of serum free DMEM/F-12. During this step, 7 µl of serum free DMEM/F-12 was also added to the wells to which IP1 standards would be subsequently added. Following serum starvation, 7 µl of ligands and serially diluted IP1-standards prepared at 2x concentration in stimulation buffer (10 mM Hepes, 1 mM CaCl2, 0.5 mM MgCl2, 4.2 mM KCl, 146 mM NaCl, 5.5 mM glucose, 50 mM LiCl, pH 7.4) were added to the appropriate wells. The cells were then placed in the cell culture incubator for 4 h. Later, 3 µl each of d2-labeled IP1 and anti-IP1 cryptate Tb conjugated antibody diluted in lysis buffer was added sequentially to all the wells and the plate was incubated overnight in the dark at room temperature. Time-resolved ratiometric fluorescence emission measurements at 665 nm and 620 nm were taken after excitation at 343 nm on FlexStation 3 instrument. […]
For re-stimulation assays, the data is expressed as the percentage of maximum agonist stimulation to allow for ready comparison between individual experiments. For the IP1 assay, a standard curve was generated using the 4-Parameter logistic equation fit of the HTRF readings of IP1 standards using the SoftMax Pro software. […] In the luciferase assay, the luminescence measurements (RLU) are presented as a ratio of firefly to renilla luciferase activity. […]

The target of another data set is T3, untagged WT MAS (Homo sapiens, UniProt P04201).
T3 construct: expressed in transfected cells
T3 sequence (P04201 1-325): T1 sequence (P04201 1-325)
The data set is described as follows: Calcium assay, untagged WT MAS inducible HEK293 stable cell line. The data set is classed as cell-based.

Data set [4] concerns MAS. Also noted: method as in ref [9] (a number printed in a supplementary file, which may have a reference list of its own: not looked up in the article's list). The following applies: Rat MAS; ref [9]; read-out: EC50 (IP1 assay); cited from earlier work.
Where [5] appears, read: WT MAS, induced cells, inhibition of constitutive activity.

Consider two compounds from publication PMC4113456, “Atypical Signaling and Functional Desensitization Response of MAS Receptor to Peptide Ligands” (PLoS ONE, 2014).

Substitutions are numbered along the chain they refer to.

Protocol for untagged WT MAS: The assay was performed using FLIPR Calcium 5 assay kit (Molecular Devices, Sunnyvale, CA). For calcium measurements, cells at a density of 125,000 cells/well in 100 µl medium were seeded onto a 96-well clear bottom black cell culture plate that was pre-coated with poly-L-lysine. In the calcium assays the cell density of 125,000 cells/well was consistently maintained to minimize variability between independent experiments. The cells were seeded in induction media to induce MAS expression or in complete media for negative controls. The plate was maintained in a cell culture incubator for 26–28 h. The cells were then serum starved for 2 h by replacing the medium with 100 µl of serum free DMEM. In the case of pre-treatment with pan-inhibitor of G protein signaling, BIM-46187, the cells were initially serum starved for 1 h by replacing the medium with 50 µl of serum free DMEM. After 1 h, 50 µl of BIM-46187 was added to the cells to a final concentration of 25 µM and treated for another 1 h. Following serum starvation, 100 µl of calcium sensitive dye along with 2x (2.5 mM final concentration) probenecid (Life Technologies, Grand Island, NY) was added to the cells. During this step, AR-inverse agonist or BIM-46187 was also added at desired concentrations to the calcium dye preparation in case of experiments where cells were pre-treated with these inhibitors. The cells were maintained for one hour in the cell culture incubator. Following this, the 96-well plate containing cells loaded with calcium dye and a U-bottom 96-well plate containing ligands at 5x the desired final concentration in D-PBS (1.47 mM KH2PO4, 138 mM NaCl, 2.67 mM KCl, 8.1 mM Na2HPO4, pH 7.3) were allowed to equilibrate for 15 min on a FlexStation 3 instrument (Molecular Devices, Sunnyvale, CA) at 37°C. The plates were further equilibrated on the instrument for 5 min with the lids removed from the plates. The instrument was programmed in FLEX mode to add ligands (50 µl at 5x concentration) to the cells and to monitor the fluorescence before and after adding the ligands. […]

`COc1cc([N+](=O)[O-])ccc1S(=O)(=O)N1CC(CN2CCN(c3ccccn3)CC2)C(c2cccc(F)c2)C1` (stereo not drawn) [AR-agonist]: the “t1/2 (time taken to reach half of the maximal calcium response), Calcium assay” value on MAS [1] (WT MAS) amounted to 31.2 ± 2.1 s. For the same compound, the EC50 was 1500 ± 300 nM on MAS [1] (WT MAS, induced cells); 1300 ± 300 nM on MAS [2] (WT MAS, induced cells); 500 ± 100 nM on MAS [3]; 2400 ± 1100 nM on MAS I191A mutant; 1200 ± 100 nM on untagged WT MAS (read-out: EC50, calcium flux); 170 nM with MAS [4]. The “Fold over WT, EC50 Calcium assay” value on MAS [1] (WT construct) is on record as 1. The “Fold over WT, EC50 IP1 assay” value at MAS [2] (WT construct) is listed as 1; on MAS I191A mutant it was 1.8.
`C=CCCN1CCC2(CC1)CN(C(=O)c1c(F)cccc1F)c1ccc(Cl)cc12` [AR-inverse]: the half-maximal inhibitory concentration (IC50) on MAS [1] (setting [5]) was 900 ± 600 nM; on MAS [2] (setting [5]), 700 ± 100 nM; against MAS [3] it was 400 ± 100 nM; on MAS I191A mutant it was 900 ± 100 nM; at untagged WT MAS (read-out: IC50, calcium flux), 500 ± 400 nM. The “Fold over WT, IC50 IP1 assay” value at MAS [2] (WT construct) is 1; at MAS I191A mutant, 1.3. Moreover, in the data set on MAS [4], the concentration for a half-maximal effect (EC50) was 348 nM.

One may read the EC50 as the concentration at which the effect is half-maximal. For orientation: IC50 means the concentration needed to halve the response being measured.
